# Experiments:
# CCRF-CEM [1] = assay: Induction of apoptosis in human CCRF-CEM cells assessed as early apoptotic cells at 10 uM after 24 hrs by annexinV and propidium iodide staining based FACS analysis (reference value: 1.5 +/- 0.8%); type: functional
# CCRF-CEM [2] = assay: Cytotoxicity against human CCRF-CEM cells assessed as cell viability at 20 uM after 24 hrs by MTT assay; type: functional; settings: read-out: Activity
# CCRF-CEM [3] = assay: Cytotoxicity against human CCRF-CEM cells assessed as cell viability at 10 uM after 24 hrs by MTT assay; type: functional; settings: read-out: Activity
# CCRF-CEM [4] = assay: Cytotoxicity against human CCRF-CEM cells assessed as cell viability at 50 uM after 24 hrs by MTT assay; type: functional; settings: read-out: Activity
# CCRF-CEM [5] = assay: Induction of apoptosis in human CCRF-CEM cells assessed as late apoptotic cells at 50 uM after 24 hrs by annexinV and propidium iodide staining based FACS analysis (reference value: 1.9 +/- 0.5%); type: functional
# CCRF-CEM [6] = assay: Induction of apoptosis in human CCRF-CEM cells assessed as late apoptotic cells at 10 uM after 24 hrs by annexinV and propidium iodide staining based FACS analysis (reference value: 1.9 +/- 0.5%); type: functional
# CCRF-CEM [7] = assay: Induction of apoptosis in human CCRF-CEM cells assessed as necrotic cells at 10 uM after 24 hrs by annexinV and propidium iodide staining based FACS analysis (reference value: 0.1 +/- 0.1%); type: functional
# MCF7 [8] = assay: Cytotoxicity against human MCF7 cells assessed as cell viability at 10 uM after 24 hrs by MTT assay; type: functional; settings: MCF7, 24 h, read-out: Activity
# MCF7 [9] = assay: Cytotoxicity against human MCF7 cells assessed as cell viability at 20 uM after 24 hrs by MTT assay; type: functional; settings: MCF7, 24 h, read-out: Activity
# CCRF-CEM [10] = assay: Induction of apoptosis in human CCRF-CEM cells assessed as necrotic cells at 50 uM after 24 hrs by annexinV and propidium iodide staining based FACS analysis (reference value: 0.1 +/- 0.1%); type: functional
# CCRF-CEM [11] = assay: Induction of apoptosis in human CCRF-CEM cells assessed as early apoptotic cells at 50 uM after 24 hrs by annexinV and propidium iodide staining based FACS analysis (reference value: 1.5 +/- 0.8%); type: functional
# CCRF-CEM [12] = assay: Induction of apoptosis in human CCRF-CEM cells assessed as viable cells at 50 uM after 24 hrs by annexinV and propidium iodide staining based FACS analysis (reference value: 96.4 +/- 1.2%); type: functional; settings: read-out: Activity
# MCF7 [13] = assay: Cytotoxicity against human MCF7 cells assessed as cell viability at 50 uM after 24 hrs by MTT assay; type: functional; settings: MCF7, 24 h, read-out: Activity
# CCRF-CEM [14] = assay: Induction of apoptosis in human CCRF-CEM cells assessed as viable cells at 10 uM after 24 hrs by annexinV and propidium iodide staining based FACS analysis (reference value: 96.4 +/- 1.2%); type: functional; settings: read-out: Activity
# [15] = target: Serine/threonine-protein kinase pim-1 (Homo sapiens) (UniProt P11309); assay: Inhibition of PIM1 (unknown origin) assessed as enzyme activity at 10 uM; set-up: scale not given: the % may be the effect or the level left
# [16] = target: Dual specificity tyrosine-phosphorylation-regulated kinase 1A (Homo sapiens) (UniProt Q13627); assay: Inhibition of DYRK1A (unknown origin) assessed as enzyme activity at 10 uM; set-up: scale not given: the % may be the effect or the level left
# [17] = target: T1, Serine/threonine-protein kinase D2 (Homo sapiens) (UniProt Q9BZL6); assay: Inhibition of PRKD2 (unknown origin) assessed as enzyme activity at 10 uM; set-up: scale not given: the % may be the effect or the level left
# T1 sequence (whole entry): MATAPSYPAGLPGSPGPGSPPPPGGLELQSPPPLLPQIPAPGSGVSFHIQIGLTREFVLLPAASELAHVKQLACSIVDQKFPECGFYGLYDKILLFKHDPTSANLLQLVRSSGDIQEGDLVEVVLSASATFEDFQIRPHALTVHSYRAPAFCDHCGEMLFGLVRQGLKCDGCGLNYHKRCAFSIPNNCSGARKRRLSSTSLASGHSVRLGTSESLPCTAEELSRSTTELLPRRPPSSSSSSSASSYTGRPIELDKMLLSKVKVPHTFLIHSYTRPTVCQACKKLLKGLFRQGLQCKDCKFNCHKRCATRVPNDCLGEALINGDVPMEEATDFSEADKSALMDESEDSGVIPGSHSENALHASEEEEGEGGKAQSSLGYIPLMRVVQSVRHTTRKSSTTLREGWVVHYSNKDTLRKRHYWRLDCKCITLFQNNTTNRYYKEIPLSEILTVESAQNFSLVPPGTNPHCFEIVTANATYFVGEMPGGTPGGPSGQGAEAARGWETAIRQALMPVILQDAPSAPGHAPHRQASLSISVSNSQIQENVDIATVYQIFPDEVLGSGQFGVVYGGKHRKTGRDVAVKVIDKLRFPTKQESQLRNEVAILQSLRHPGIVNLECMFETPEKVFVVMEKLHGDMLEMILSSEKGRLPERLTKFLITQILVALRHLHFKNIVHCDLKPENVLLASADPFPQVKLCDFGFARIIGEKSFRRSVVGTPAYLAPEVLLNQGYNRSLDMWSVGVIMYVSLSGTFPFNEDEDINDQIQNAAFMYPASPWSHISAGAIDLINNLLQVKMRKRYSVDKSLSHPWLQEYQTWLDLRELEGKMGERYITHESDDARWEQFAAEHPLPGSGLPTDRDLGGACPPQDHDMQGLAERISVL
# Homo sapiens [18] = species on record: Homo sapiens; assay: Inhibition of PKA (unknown origin) assessed as enzyme activity at 10 uM; set-up: scale not given: the % may be the effect or the level left
# [19] = target: Mitogen-activated protein kinase 3 (Homo sapiens) (UniProt P27361); assay: Inhibition of Erk1 (unknown origin) assessed as enzyme activity at 10 uM; set-up: scale not given: the % may be the effect or the level left
# [20] = target: Homeodomain-interacting protein kinase 1 (Homo sapiens) (UniProt Q86Z02); assay: Inhibition of HIPK1 (unknown origin) assessed as enzyme activity at 10 uM; set-up: scale not given: the % may be the effect or the level left
# [21] = target: Casein kinase I isoform alpha (Homo sapiens) (UniProt P48729); assay: Inhibition of CK1-alpha1 (unknown origin) assessed as enzyme activity at 10 uM; set-up: scale not given: the % may be the effect or the level left
# [22] = target: T2, CDK2/Cyclin A2 (Homo sapiens) (UniProt P24941+P20248); assay: Inhibition of CDK2/CycA2 (unknown origin) assessed as enzyme activity at 10 uM; type: protein-complex assay; set-up: scale not given: the % may be the effect or the level left
# [23] = target: Homeodomain-interacting protein kinase 1 (Homo sapiens) (UniProt Q86Z02); assay: Inhibition of HIPK1 (unknown origin) assessed as enzyme activity at 5 uM; set-up: scale not given: the % may be the effect or the level left
# [24] = target: Casein kinase II subunit alpha (Homo sapiens, UniProt P68400); assay: Inhibition of recombinant human CK2alpha using RRRDDDSDDD substrate peptide by scintillation counter in presence of [32P]ATP
# [25] = target: Mitogen-activated protein kinase 3 (Homo sapiens) (UniProt P27361); assay: Inhibition of Erk1 (unknown origin) assessed as enzyme activity at 5 uM; set-up: scale not given: the % may be the effect or the level left
# [26] = target: T1, Serine/threonine-protein kinase D2 (Homo sapiens); assay: Inhibition of PRKD2 (unknown origin) assessed as enzyme activity at 5 uM; set-up: scale not given: the % may be the effect or the level left
# Homo sapiens [27] = species on record: Homo sapiens; assay: Inhibition of PKA (unknown origin) assessed as enzyme activity at 5 uM; set-up: scale not given: the % may be the effect or the level left
# [28] = target: Casein kinase I isoform alpha (Homo sapiens) (UniProt P48729); assay: Inhibition of CK1-alpha1 (unknown origin) assessed as enzyme activity at 5 uM; set-up: scale not given: the % may be the effect or the level left
# [29] = target: T2, CDK2/Cyclin A2 (Homo sapiens); assay: Inhibition of CDK2/CycA2 (unknown origin) assessed as enzyme activity at 5 microM; type: protein-complex assay; set-up: scale not given: the % may be the effect or the level left
# [30] = target: Casein kinase II (Homo sapiens) (UniProt P67870+P68400+P19784); settings: CCRF-CEM, 5 uM
# [31] = target: Dual specificity tyrosine-phosphorylation-regulated kinase 1A (Homo sapiens) (UniProt Q13627); assay: Inhibition of DYRK1A (unknown origin) assessed as enzyme activity at 5 uM; set-up: scale not given: the % may be the effect or the level left
# [32] = target: Serine/threonine-protein kinase pim-1 (Homo sapiens) (UniProt P11309); assay: Inhibition of PIM1 (unknown origin) assessed as enzyme activity at 5 uM; set-up: scale not given: the % may be the effect or the level left
Structure (SMILES),Activity (CCRF-CEM [1]) [%],viability at 20 µM (CCRF-CEM [2]) [%],viability at 10 µM (CCRF-CEM [3]) [%],viability at 50 µM (CCRF-CEM [4]) [%],Activity (CCRF-CEM [5]) [%],Activity (CCRF-CEM [6]) [%],Activity (CCRF-CEM [7]) [%],viability at 10 µM (MCF7 [8]) [%],viability at 20 µM (MCF7 [9]) [%],Activity (CCRF-CEM [10]) [%],Activity (CCRF-CEM [11]) [%],viability at 50 µM (CCRF-CEM [12]) [%],viability at 50 µM (MCF7 [13]) [%],viability at 10 µM (CCRF-CEM [14]) [%],further results
Cc1nc2c(Br)c(Br)c(Br)c(Br)c2n1CCCCC#N,3.6,61,92,55,29.3,2.9,0.1,109,110,0.6,39.9,30.2,42,93.5,–
Cc1nc2c(Br)c(Br)c(Br)c(Br)c2n1CCC#N,10.6,51,84,2,20.1,7.1,0.2,85,74,0.9,69.6,6.2,15,82,–
Cc1nc2c(Br)c(Br)c(Br)c(Br)c2n1CC#N,28.9,14,45,2,33.9,17.8,0.8,52,36,0.6,59.7,2.4,11,52,–
Brc1c(Br)c(Br)c2[nH]cnc2c1Br,2.4,67,92,7,26,2.7,0.1,94,77,1,59.2,18.8,40,94.8,Activity [15]: 2%; Activity [16]: 3%; Activity [17]: 5%; Activity (Homo sapiens [18]): 75%; Activity [19]: 78%; Activity [20]: 9%; Activity [21]: 48%; Activity [22]: 23%
Cc1nc2c(Br)c(Br)c(Br)c(Br)c2[nH]1,47.3,15,29,6,27.3,15.3,0.5,76,66,0.4,59.8,14.2,33,36.7,Activity [23]: 43%; Ki [24]: 1110 nM; Activity [25]: 92%; Activity [26]: 14%; Activity (Homo sapiens [27]): 113%; Activity [28]: 84%; Activity [29]: 20%; inhibition [30]: 20%; Activity [31]: 17%; Activity [32]: 6%
N#CCCn1cnc2c(Br)c(Br)c(Br)c(Br)c21,5.4,44,80,2,17,3.9,0.1,81,72,0.4,77.2,5.4,23,90.6,–
N#CCn1cnc2c(Br)c(Br)c(Br)c(Br)c21,12.3,28,63,2,20.4,8.8,0.5,87,65,0.8,62.7,14.8,43,76.2,–
Cc1nc2c(Br)c(Br)c(Br)c(Br)c2n1CCCC#N,10.8,44,68,1,76.3,6.3,0.5,65,56,5.7,14.7,3.3,5,82.4,–
N#CCCCn1cnc2c(Br)c(Br)c(Br)c(Br)c21,3.3,70,85,2,33.3,3.8,0.1,89,70,2.3,41.1,21.5,16,92.8,–
N#CCCCCn1cnc2c(Br)c(Br)c(Br)c(Br)c21,3.2,70,98,1,44.9,3.1,0.1,102,99,0.9,39.9,14.3,18,93.6,–

# — ChEMBL document CHEMBL3751801, “Synthesis of novel polybrominated benzimidazole derivatives-potential CK2 inhibitors with anticancer and proapoptotic activity” (Bioorg Med Chem, 2016)
